Experiment: mn = molality of the nth substance listed, in mol/kg
Details: 101 kPa, Liquid, Vibrating tube method

CCC[n+]1ccn(CCO)c1.[Cl-] [1-(2-hydroxylethyl)-3-propylimidazolium chloride] + O
mass density [kg/m3]
Details	293.15 K	298.15 K	303.15 K
m1 = 0.01	998.4	997.35	995.88
m1 = 0.0505	999.68	998.47	997.08
m1 = 0.102	1001.01	999.89	998.4
m1 = 0.208	1004.05	1002.76	1001.15
m1 = 0.5535	1012.98	1011.56	1009.99
m1 = 1.175	1027.62	1025.68	1023.8
m1 = 2.103	1046.02	1043.76	1041.7
m1 = 3.23	1063.98	1061.54	1058.92
m1 = 4.772	1082.55	1079.86	1077.08
m1 = 5.992	1093.61	1090.78	1087.9
m1 = 7.003	1101.22	1098.33	1095.39

CCC[n+]1ccn(CC(=O)O)c1.[Cl-] [1-(carboxymethyl)-3-propylimidazolium chloride] + O
mass density [kg/m3]
Details	m1 = 0.0302	m1 = 0.0505	m1 = 0.1021	m1 = 0.2084	m1 = 0.5569	m1 = 1.257	m1 = 2.166	m1 = 3.386	m1 = 5.114	m1 = 7.768
293.15 K	999.68	1000.6	1002.96	1007.61	1021.7	1046.14	1071.45	1097.44	1123.69	1150.29
298.15 K	998.52	999.44	1001.71	1006.08	1019.83	1044.05	1069.11	1094.76	1120.74	1147.15
303.15 K	997.01	998	1000.1	1004.64	1018.22	1041.75	1066.6	1091.97	1117.73	1143.97

C[n+]1ccn(CC(=O)O)c1.[Cl-] [1-carboxymethyl-3-methylimidazolium chloride] + O
mass density [kg/m3]
Details	m1 = 0.0302	m1 = 0.0505	m1 = 0.1018	m1 = 0.2072	m1 = 0.5443	m1 = 1.214	m1 = 2.041	m1 = 3.094	m1 = 4.466	m1 = 6.375
293.15 K	999.87	1000.94	1003.6	1008.87	1024.61	1052.15	1080.57	1110.21	1140.75	1173
298.15 K	998.71	999.76	1002.36	1007.5	1022.95	1050.32	1078.44	1107.83	1138.14	1170.21
303.15 K	997.12	998.24	1000.9	1006.06	1021.26	1048.33	1076.13	1105.34	1135.4	1167.36

— the NIST ThermoML archive (doi:10.1021/je400310h)
